According to patent US9084765B2, “Use of amisulpride as an anti-emetic” (Acacia Pharma Limited, priority 2010, dated 2015):
Entries after “also recorded” stand apart in the source; their conditions may differ.

Columns and labels:
[1] = reported in the UKPAR (Special Warnings and Precautions for Use); cited from earlier work
[2] = test system: ferrets challenged with apomorphine; test: Apomorphine-induced emesis in ferrets; type: in vivo, ferret; conditions: 2 hour observation
Description: (§1) Amisulpride, white powder, was dissolved in dimethylsulfoxide and then diluted in physiological saline. For vehicle control, physiological saline was used for s,c, administration (apomorphine experiments) and 8.3% DMSO in physiological saline was used for i.v. administration (morphine, cisplatin). Apomorphine hydrochloride hemihydrates, white powder, was dissolved in physiological saline. The method used to test antiemetic activity preclinically follows that described by Gardner et al. (Brit. J. Pharmacol., 116: 3158-3163, 1995) and uses ferrets. Sixty minutes before administration of the test substance, ferrets are placed in individual stainless steel cages (40×50×34 cm) with a grid floor. Then, the animals are challenged with apomorphine (0.25 mg/kg s.c.), morphine (0.4 mg/kg i.p.) or cisplatin (10 mg/kg i.p.) and immediately observed over at least a 2-hour period. Parameters recorded include: number of ferrets showing retches and vomits; latency to first retching; latency to first vomiting; number of retches; vomiting (number of vomits); number of emesis periods and mean duration of emesis periods. Retching is defined as a rhythmic respiratory movement against a closed glottis, while vomiting is defined as a forced expulsion of upper gastrointestinal contents. […]

[3] = test system: ferrets challenged with cisplatin; test: Cisplatin-induced emesis in ferrets; type: in vivo, ferret
Description: Amisulpride, white powder, was dissolved in dimethylsulfoxide and then diluted in physiological saline. For vehicle control, physiological saline was used for s,c, administration (apomorphine experiments) and 8.3% DMSO in physiological saline was used for i.v. administration (morphine, cisplatin). […] Cisplatinum II diamine dichloride, yellow powder, was dispersed in 0.2% hydroxymethylcellulose in physiological saline. The method used to test antiemetic activity preclinically follows that described by Gardner et al. (Brit. J. Pharmacol., 116: 3158-3163, 1995) and uses ferrets. Sixty minutes before administration of the test substance, ferrets are placed in individual stainless steel cages (40×50×34 cm) with a grid floor. Then, the animals are challenged with apomorphine (0.25 mg/kg s.c.), morphine (0.4 mg/kg i.p.) or cisplatin (10 mg/kg i.p.) and immediately observed over at least a 2-hour period. Parameters recorded include: number of ferrets showing retches and vomits; latency to first retching; latency to first vomiting; number of retches; vomiting (number of vomits); number of emesis periods and mean duration of emesis periods. Retching is defined as a rhythmic respiratory movement against a closed glottis, while vomiting is defined as a forced expulsion of upper gastrointestinal contents. […]

[4] = test system: ferrets challenged with morphine; test: Morphine-induced emesis in ferrets; type: in vivo, ferret
Description: as §1, with “Morphine hydrochloride,” for “Apomorphine hydrochloride hemihydrates,”

[5] = test system: apomorphine-induced vomiting in the dog; conditions: reported in U.S. Pat. No. 4,294,828; cited from earlier work

CCN1CCCC1CNC(=O)c1cc(S(=O)(=O)CC)c(N)cc1OC (centres unmarked) [Amisulpride]
prolongation of the QT interval [1]: induces a dose dependent prolongation of the QT interval | effect on apomorphine emesis ([2]; amisulpride 10 μg/kg s.c.): totally inhibited | effect on apomorphine emesis ([2]; amisulpride 100 μg/kg s.c.): totally inhibited | efficacy compared with droperidol ([3]; amisulpride 0.6 mg/kg (one animal excluded) and 2 mg/kg versus droperidol 3 mg/kg given 5 minutes before cisplatin): better than droperidol at 3 mg/kg; also recorded: more effective than droperidol at 3 mg/kg | effect on emetic effects of cisplatin ([3]; i.v. before cisplatin, 72 hour period, versus vehicle control): reduces the emetic effects of cisplatin, in dose-dependent manner | incidence of vomits ([4]; amisulpride 3 mg/kg i.v. before morphine 0.4 mg/kg i.p.): abolished | effect on emetic effects induced by morphine ([4]; i.v. 5 minutes before morphine, 2 hour observation, versus vehicle control): reduces the emetic effects induced by morphine, in dose-dependent manner | apomorphine-induced vomiting [5]: inhibit apomorphine-induced vomiting in the dog
